Results published in US8809342B2, “Glucagon receptor modulators” (Pfizer Inc., priority 2010, dated 2014).

target: T1, human glucagon receptor (Homo sapiens, UniProt P47871); experiment: Glucagon cAMP assay (Cisbio cAMP detection); type: cell-based
T1 construct: expressed in transfected cells; host or cells: CHO-K1 cells, stably transfected
Method: The Cisbio cAMP detection assay is used to determine the ability of punitive glucagon antagonist to block glucagon induced cAMP production. Potential glucagon antagonists are re-suspended and diluted in 100% DMSO. Prior to use in the Glucagon cAMP assay 100×DMSO compound stocks are diluted 20× with DMEM-F12 media (Invitrogen) containing either 0.1% or 4% BSA. 2 uls of 5× compound stocks are spotted into the appropriate wells of low binding white solid bottom 384 well plates (Corning). 2 uls of 5% DMSO or known glucagon antagonist are added to each plate to define the assay window. CHOK1 cells stably transfected with the human glucagon receptor are removed from culture flasks with cell dissociation buffer. Cell pellets are re-suspended, at a concentration of 8.3e^5 cells/ml in DMEM-F12 with or without 4% BSA and 200 uM IBMX. 6 uls of cell suspensions are added to the assay plates. Plates are incubated for 20 min at room temperature prior to the addition of a 100 pM challenge dose of glucagon. On a separate plate glucagon dose response curves are run to determine the EC50 of glucagon. After a 30 min room temperature incubation the reaction is terminated by the addition of lysis buffer containing the cAMP detection reagents. Plates are incubated for an additional 60 min at room temperature prior to being read on the Perkin Elmer fluorescent plate reader. Raw is converted to nM of cAMP produced based on a cAMP standard curve. Converted data is then analyzed using the Pfizer data analysis program. IC50 values are determined from the generated sigmoidal dose response curves. Kb values are the calculated using a modified Cheng-Prusoff equation.

T1 sequence (P47871 26-477): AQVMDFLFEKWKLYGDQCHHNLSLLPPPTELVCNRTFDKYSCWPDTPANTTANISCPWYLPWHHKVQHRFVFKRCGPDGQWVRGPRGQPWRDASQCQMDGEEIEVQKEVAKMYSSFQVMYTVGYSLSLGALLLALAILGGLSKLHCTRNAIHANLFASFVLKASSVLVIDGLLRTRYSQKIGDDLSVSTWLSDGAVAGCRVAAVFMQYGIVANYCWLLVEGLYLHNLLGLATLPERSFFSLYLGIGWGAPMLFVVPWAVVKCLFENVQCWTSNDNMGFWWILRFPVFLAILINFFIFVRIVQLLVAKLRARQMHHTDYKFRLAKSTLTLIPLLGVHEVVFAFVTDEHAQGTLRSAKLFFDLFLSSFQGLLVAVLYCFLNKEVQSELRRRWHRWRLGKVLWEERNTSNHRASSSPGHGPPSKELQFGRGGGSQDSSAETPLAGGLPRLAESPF

In order of rising Kb:
1. O=C(O)CCNC(=O)c1ccc(NC(c2ccc(-c3ccc(C(F)(F)F)cc3)cc2)C2CCCC2)nc1 (racemic) [Example 1.35, (+/−)-3-(6-(cyclopentyl(4′-(trifluoromethyl)biphenyl-4-yl)methylamino)nicotinamido)propanoic acid]  50 nM
2. Cc1cc(C(CC(C)C)Nc2ccc(C(=O)NCCC(=O)O)cn2)cc(C)c1-c1ccc(C(F)(F)F)cc1 (racemic) [Example 1.28, (+/−)-3-(6-(1-(2,6-dimethyl-4′-(trifluoromethyl)biphenyl-4-yl)-3-methylbutylamino)nicotinamido)propanoic acid]  83 nM
3. Cc1cc(C(CC(C)C)Nc2ccc(C(=O)NCCC(=O)O)cn2)ccc1-c1ccc(C(F)(F)F)cc1 (racemic) [Example 1.25, (+/−)-3-(6-(3-methyl-1-(2-methyl-4′-(trifluoromethyl)biphenyl-4-yl)butylamino)nicotinamido)propanoic acid]  95 nM
4. CC(C)CC(Nc1ccc(C(=O)NCCC(=O)O)cn1)c1ccc(-c2cccc(Cl)c2)cc1 (racemic) [Example 1.39, (+/−)-3-(6-(1-(3′-chlorobiphenyl-4-yl)-3-methylbutylamino)nicotinamido)propanoic acid]  110 nM
5. CC(C)(C)CC(Nc1ccc(C(=O)NCCC(=O)O)cn1)c1ccc(-c2ccc(C(F)(F)F)cc2)cc1 (racemic) [Example 1.33, (+/−)-3-(6-(3,3-dimethyl-1-(4′-(trifluoromethyl)biphenyl-4-yl)butylamino)nicotinamido)propanoic acid]  120 nM
6. CC(C)CC(Nc1ccc(C(=O)NCCC(=O)O)cn1)c1ccc(-c2ccc(C(F)(F)F)cc2)cc1 (racemic) [Example 1.2, (+/−)-3-(6-(3-methyl-1-(4′-(trifluoromethyl)biphenyl-4-yl)butylamino)nicotinamido)propanoic acid]  140 nM
7. CC(C)CC(Nc1cnc(C(=O)NCCC(=O)O)cn1)c1ccc(-c2ccc(C(F)(F)F)cc2)cc1 (racemic) [Example 1.16, (+/−)-3-(5-(3-methyl-1-(4′-(trifluoromethyl)biphenyl-4-yl)butylamino)pyrazine-2-carboxamido)propanoic acid]  150 nM
8. CC(C)CC(Nc1ccc(C(=O)NCCC(=O)O)cn1)c1ccc(-c2ccc(C(F)(F)F)cc2)nc1 (racemic) [Example 1.29, (+/−)-3-(6-(3-methyl-1-(6-(4-(trifluoromethyl)phenyl)pyridin-3-yl)butylamino)nicotinamido)propanoic acid]  160 nM
9. CCCC(Nc1ccc(C(=O)NCCC(=O)O)cn1)c1ccc(-c2ccc(C(F)(F)F)cc2)cc1 (racemic) [Example 1.7, (+/−)-3-(6-(1-(4′-(trifluoromethyl)biphenyl-4-yl)butylamino)nicotinamido)propanoic acid]  170 nM
10. CC(C)C(Nc1ccc(C(=O)NCCC(=O)O)cn1)c1ccc(-c2ccc(C(F)(F)F)cc2)cc1 (racemic) [Example 1.10, (+/−)-3-(6-(2-methyl-1-(4′-(trifluoromethyl)biphenyl-4-yl)propylamino)nicotinamido)propanoic acid]  180 nM
11. COc1ccccc1-c1ccc(C(CC(C)C)Nc2ccc(C(=O)NCCC(=O)O)cn2)cc1 (racemic) [Example 1.43, (+/−)-3-(6-(1-(2′-methoxybiphenyl-4-yl)-3-methylbutylamino)nicotinamido)propanoic acid]  190 nM
12. CC(C)CC(Nc1ccc(C(=O)NCCC(=O)O)cn1)c1ccc(-c2ccccc2)cc1 (racemic) [Example 1.37]  220 nM
13. Cc1cc(C(CC(C)C)Nc2ncc(C(=O)NCCC(=O)O)cn2)cc(C)c1-c1ccc(C(F)(F)F)cc1 (racemic) [Example 1.27, (+/−)-3-(2-(1-(2,6-dimethyl-4′-(trifluoromethyl)biphenyl-4-yl)-3-methylbutylamino)pyrimidine-5-carboxamido)propanoic acid]  260 nM
14. CCC(Nc1ccc(C(=O)NCCC(=O)O)cn1)c1ccc(-c2ccc(C(F)(F)F)cc2)cc1 (racemic) [Example 1.11]  280 nM
15. CC(C)CC(Nc1ccc(C(=O)N(C)CCC(=O)O)cn1)c1ccc(-c2ccc(C(F)(F)F)cc2)cc1 (racemic) [Example 1.23, (+/−)-3-(N-methyl-6-(3-methyl-1-(4′-(trifluoromethyl)biphenyl-4-yl)butylamino)nicotinamido)propanoic acid]  300 nM
16. Cc1cc(C(CC(C)C)Nc2ncc(C(=O)NCCC(=O)O)cn2)ccc1-c1ccc(C(F)(F)F)cc1 (racemic) [Example 1.26, (+/−)-3-(2-(3-methyl-1-(2-methyl-4′-(trifluoromethyl)biphenyl-4-yl)butylamino)pyrimidine-5-carboxamido)propanoic acid]  390 nM
17. CC(C)CC(Nc1ccc(C(=O)NCCC(=O)O)cn1)c1ccc(-c2cccc(F)c2)cc1 (racemic) [Example 1.41, (+/−)-3-(6-(1-(3′-fluorobiphenyl-4-yl)-3-methylbutylamino)nicotinamido)propanoic acid]  450 nM
18. CC(C)CC(Nc1ccc(C(=O)NCc2nn[nH]n2)cn1)c1ccc(-c2ccc(C(F)(F)F)cc2)cc1 (racemic) [Example 1.21, (+/−)-N-((2H-tetrazol-5-yl)methyl)-6-(3-methyl-1-(4′-(trifluoromethyl)biphenyl-4-yl)butylamino)nicotinamide]  520 nM
19. CCCC(Nc1cnc(C(=O)NCCC(=O)O)cn1)c1ccc(-c2ccc(C(F)(F)F)cc2)cc1 (racemic) [Example 1.30, (+/−)-3-(5-(1-(4′-(trifluoromethyl)biphenyl-4-yl)butylamino)pyrazine-2-carboxamido)propanoic acid]  540 nM
20. CCC(Nc1cnc(C(=O)NCCC(=O)O)cn1)c1ccc(-c2ccc(C(F)(F)F)cc2)cc1 (racemic) [Example 1.31, (+/−)-3-(5-(1-(4′-(trifluoromethyl)biphenyl-4-yl)propylamino)pyrazine-2-carboxamido)propanoic acid]  540 nM
21. O=C(O)CCNC(=O)c1ccc(NC(c2ccc(-c3ccc(C(F)(F)F)cc3)cc2)C2CC2)nc1 (racemic) [Example 1.34, (+/−)-3-(6-(cyclopropyl(4′-(trifluoromethyl)biphenyl-4-yl)methylamino)nicotinamido)propanoic acid]  550 nM
22. CC(C)CC(Nc1ncc(C(=O)NCCC(=O)O)cn1)c1ccc(-c2ccc(C(F)(F)F)cc2)cc1 (racemic) [Example 1.4, (+/−)-3-(2-(3-methyl-1-(4′-(trifluoromethyl)biphenyl-4-yl)butylamino)pyrimidine-5-carboxamido)propanoic acid]  560 nM
23. CC(C)CC(Nc1ccc(C(=O)NCCC(=O)O)cn1)c1ccc(-c2ccccc2F)cc1 (racemic) [Example 1.38, (+/−)-3-(6-(1-(2′-fluorobiphenyl-4-yl)-3-methylbutylamino)nicotinamido)propanoic acid]  600 nM
24. O=C(O)CCNC(=O)c1ccc(NC(c2ccc(-c3ccc(C(F)(F)F)cc3)cc2)C2CCC2)nc1 (racemic) [Example 1.32, (+/−)-3-(6-(cyclobutyl(4′-(trifluoromethyl)biphenyl-4-yl)methylamino)nicotinamido)propanoic acid]  610 nM
25. Cc1ccccc1-c1ccc(C(CC(C)C)Nc2ccc(C(=O)NCCC(=O)O)cn2)cc1 (racemic) [Example 1.42, (+/−)-3-(6-(3-methyl-1-(2′-methylbiphenyl-4-yl)butylamino)nicotinamido)propanoic acid]  780 nM
26. Cc1ccc(-c2ccc(C(CC(C)C)Nc3ccc(C(=O)NCCC(=O)O)cn3)cc2)cn1 (racemic) [Example 1.36, (+/−)-3-(6-(3-methyl-1-(4-(6-methylpyridin-3-yl)phenyl)butylamino)nicotinamido)propanoic acid]  870 nM
27. CC(C)CC(Nc1ncc(C(=O)Nc2nnn[nH]2)cn1)c1ccc(-c2ccc(C(F)(F)F)cc2)cc1 (racemic) [Example 1.19, (+/−)-2-(3-methyl-1-(4′-(trifluoromethyl)biphenyl-4-yl)butylamino)-N-(1H-tetrazol-5-yl)pyrimidine-5-carboxamide]  890 nM
28. CC(C)CC(Nc1ccc(C(=O)Nc2nn[nH]n2)cn1)c1ccc(-c2ccc(C(F)(F)F)cc2)cc1 (racemic) [Example 1.20]  1000 nM
29. CC(C)CC(Nc1ccc(C(=O)NC[C@@H](O)C(=O)O)cn1)c1ccc(-c2ccc(C(F)(F)F)cc2)cc1 (mixture of isomers) [Example 1.24, (+/−)-(2R)-2-hydroxy-3-(6-(3-methyl-1-(4′-(trifluoromethyl)biphenyl-4-yl)butylamino)nicotinamido)propanoic acid]  1600 nM
30. CC(C)CC(Nc1ccc(C(=O)NCCC(=O)O)cn1)c1ccc(-c2cccnc2)cc1 (racemic) [Example 1.40, (+/−)-3-(6-(3-methyl-1-(4-(pyridin-3-yl)phenyl)butylamino)nicotinamido)propanoic acid]  4600 nM
31. CC(C)CC(Nc1ccc(C(=O)NCCS(=O)(=O)O)cn1)c1ccc(-c2ccc(C(F)(F)F)cc2)cc1 (racemic) [Example 1.22, (+/−)-2-(6-(3-methyl-1-(4′-(trifluoromethyl)biphenyl-4-yl)butylamino)nicotinamido) ethanesulfonic acid]  6700 nM
